The results in this text go back to patent publication US10294207B2, “Pyrazole derivatives as TNIK, IKKϵ and TBK1 inhibitor and pharmaceutical composition comprising same” (GREEN CROSS CORPORATION, priority 2015, dated 2019).

The target of one assay is T1, TBK1 (Homo sapiens, UniProt Q9UHD2).
T1 construct: purchased Promega V3991
T1 sequence (Q9UHD2 1-729): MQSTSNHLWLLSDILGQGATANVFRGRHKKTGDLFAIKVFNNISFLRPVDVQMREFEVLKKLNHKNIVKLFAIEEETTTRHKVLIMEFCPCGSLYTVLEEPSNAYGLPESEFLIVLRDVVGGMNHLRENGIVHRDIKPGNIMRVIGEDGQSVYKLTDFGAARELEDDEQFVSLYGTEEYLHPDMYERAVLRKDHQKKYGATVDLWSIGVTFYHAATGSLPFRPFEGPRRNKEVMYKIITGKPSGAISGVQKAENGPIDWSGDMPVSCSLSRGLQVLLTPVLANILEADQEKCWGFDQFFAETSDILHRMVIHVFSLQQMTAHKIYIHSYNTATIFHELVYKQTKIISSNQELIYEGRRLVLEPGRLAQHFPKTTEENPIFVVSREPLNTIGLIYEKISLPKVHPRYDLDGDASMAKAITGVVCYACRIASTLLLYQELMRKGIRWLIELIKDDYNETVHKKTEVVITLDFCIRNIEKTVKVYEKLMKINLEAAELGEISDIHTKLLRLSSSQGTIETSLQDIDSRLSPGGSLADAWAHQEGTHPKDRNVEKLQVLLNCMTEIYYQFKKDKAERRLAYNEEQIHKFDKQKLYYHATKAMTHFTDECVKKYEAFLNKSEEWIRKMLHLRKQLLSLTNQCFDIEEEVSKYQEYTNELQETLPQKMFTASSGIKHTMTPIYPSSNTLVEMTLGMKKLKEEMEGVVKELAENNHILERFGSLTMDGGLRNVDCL
Briefly: TBK1 inhibition, ADP-Glo Kinase Assay. It is filed as biochemical. Particulars: luminometer. In short, it runs like this: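 ADP-Glo luminescence reported ADP produced by each kinase, following the kit protocol. Reactions used commercial kinase enzyme systems in buffer of 40 mM Tris (pH 7.5), 20 mM MgCl2 and 0.1 mg/mL BSA.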

The next assay concerns the target T2, IKKε (Homo sapiens, UniProt Q14164).
T2 construct: purchased Invitrogen PR8031B
T2 sequence (Q14164 1-716): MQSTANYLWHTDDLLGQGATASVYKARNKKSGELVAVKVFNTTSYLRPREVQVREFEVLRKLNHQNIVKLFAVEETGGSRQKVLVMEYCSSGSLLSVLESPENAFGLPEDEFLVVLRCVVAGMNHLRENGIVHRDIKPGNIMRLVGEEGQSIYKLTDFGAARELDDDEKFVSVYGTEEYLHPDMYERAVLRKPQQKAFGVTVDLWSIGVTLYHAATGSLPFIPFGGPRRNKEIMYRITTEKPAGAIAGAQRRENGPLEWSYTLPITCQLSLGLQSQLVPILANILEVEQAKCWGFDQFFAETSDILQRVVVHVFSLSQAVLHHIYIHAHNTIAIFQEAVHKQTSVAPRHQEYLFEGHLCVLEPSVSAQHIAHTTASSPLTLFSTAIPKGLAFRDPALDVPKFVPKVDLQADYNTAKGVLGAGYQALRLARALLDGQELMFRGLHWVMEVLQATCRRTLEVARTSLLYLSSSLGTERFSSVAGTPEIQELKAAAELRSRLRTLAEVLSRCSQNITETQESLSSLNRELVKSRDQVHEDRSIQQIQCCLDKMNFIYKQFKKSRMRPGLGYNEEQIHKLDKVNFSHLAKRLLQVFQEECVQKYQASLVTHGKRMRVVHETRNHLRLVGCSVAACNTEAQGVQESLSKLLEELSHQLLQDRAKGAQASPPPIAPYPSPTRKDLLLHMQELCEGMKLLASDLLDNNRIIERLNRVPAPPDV
Nature of the assay: IKKε inhibition, ADP-Glo Kinase Assay. Particulars: luminometer. Type of assay: biochemical. On the procedure: Inhibition activities on TNIK, IKKε and TBK1 were evaluated using the compounds of Examples 1 to 254.
The inhibition activities on TNIK, IKKε and TBK1 were measured by a luminometer, TNIK/IKKε/TBK1 Kinase Enzyme System (Promega, Ca# V4158; Invitrogen, PR8031B, Promega, Ca# V3991) and ADP-Glo Kinase Assay using ADP-Glo™ Kinase Analysis Kit (Promega, Ca# V9101) and a kinase reaction buffer [40 mM Tris(pH 7.5), 20 mM MgCl2, 0.1 mg/mL BSA] in accordance with the manufacturer's protocol.

SMILES strings stand for the structures.

As for `CCC[C@@H](NC(=O)c1ccc2[nH]nc(NC(=O)c3ccc(N4CCN(C)CC4)cc3)c2c1)c1ccccc1` [Example 194, (R)-3-(4-(4-Methylpiperazin-1-yl)benzamido)-N-(1-phenylbutyl)-1H-indazole-5-carboxamide], the 50% inhibitory concentration (IC50) at TBK1 is 0.0075 µM; at IKKε, 0.038 µM.

In the case of `CC(C)(NC(=O)c1ccc2[nH]nc(NC(=O)c3ccc(N4CCOCC4)cc3)c2c1)c1cccs1` [Example 134, 3-(4-Morpholinobenzamido)-N-(2-(thiophen-2-yl)propan-2-yl)-1H-indazole-5-carboxamide], the figures for the IC50 against TBK1 and against IKKε were 0.012 µM and 0.033 µM, respectively.

Take `O=C(NCc1cccs1)c1ccc2[nH]nc(NC(=O)c3ccc(NCCC4=CCCCC4)cc3)c2c1` [Example 167, 3-(4-((2-(Cyclohex-1-en-1-yl)ethyl)amino)benzamido)-N-(thiophen-2-ylmethyl)-1H-indazole-5-carboxamide]: the IC50 against TBK1 came out at 1.1 µM; at IKKε, 3.9 µM.

In the case of `CN1CCN(c2ccc(C(=O)Nc3n[nH]c4ccc(C(=O)NCc5ccc(C(F)(F)F)cc5)cc34)cc2)CC1` [Example 66, 3-(4-(4-Methylpiperazin-1-yl)benzamido)-N-(4-(trifluoromethyl)benzyl)-1H-indazole-5-carboxamide], the figures for the half-maximal inhibitory concentration (IC50) against TBK1 and against IKKε were 0.98 µM and 3.19 µM, respectively.

For the compound `O=C(NCc1cccs1)c1ccc2[nH]nc(NC(=O)c3ccc(C4=CCNCC4)cc3)c2c1` [Example 199, 3-(4-(1,2,3,6-Tetrahydropyridin-4-yl)benzamido)-N-(thiophen-2-ylmethyl)-1H-indazole-5-carboxamide], the results for the half-maximal inhibitory concentration (IC50) against TBK1 and against IKKε were 0.0097 µM and 0.14 µM, respectively.

As to `CC(NC(=O)c1ccc2[nH]nc(NC(=O)c3ccc(N4CCN(C)CC4)cc3)c2c1)c1cccnc1` (stereo not shown) [Example 53, 3-(4-(4-Methylpiperazin-1-yl)benzamido)-N-(1-(pyridin-3-yl)ethyl)-1H-indazole-5-carboxamide], the figures for the half-maximal inhibitory concentration (IC50) against TBK1 and against IKKε were 0.021 µM and over 10 µM, respectively.

On to `Cc1ccc(CNC(=O)c2ccc3[nH]nc(NC(=O)c4ccc(F)cc4)c3c2)s1` [Example 19, 3-(4-Fluorobenzamido)-N-((5-methylthiophen-2-yl)methyl)-1H-indazole-5-carboxamide], for which the 50% inhibitory concentration (IC50) at TBK1 stood at 0.49 µM; on IKKε it was 2.91 µM.

For the compound `CCC(NC(=O)c1ccc2[nH]nc(NC(=O)c3ccc(N4CCOCC4)cc3)c2c1)c1cccs1` (stereo not shown) [Example 54, 3-(4-Morpholinobenzamido)-N-(1-(thiophen-2-yl)propyl)-1H-indazole-5-carboxamide], the values for the IC50 against TBK1 and on IKKε were 0.00036 µM and 0.0031 µM, respectively.

On to `CC(C)(C)OC(=O)N1CC=C(c2ccc(C(=O)Nc3n[nH]c4ccc(C(=O)NCc5cccs5)cc34)cc2)CC1` [Example 198, tert-Butyl 4-(4-((5-((thiophen-2-ylmethyl)carbamoyl)-1H-indazol-3-yl)carbamoyl)phenyl)-3,6-tetrahydropyridine-1(2H)-carboxylate], for which the results for the IC50 on TBK1 and at IKKε were 0.15 µM and 1.28 µM, respectively.

Take `CN1CCN(c2ccc(C(=O)Nc3n[nH]c4ccc(C(=O)NCc5ccno5)cc34)cc2)CC1` [Example 178, N-(Isoxazol-5-ylmethyl)-3-(4-(4-methylpiperazin-1-yl)benzamido)-1H-indazole-5-carboxamide]: the values for the half-maximal inhibitory concentration (IC50) at TBK1 and at IKKε were 0.037 µM and 0.16 µM, respectively.

Turning to `CN1CCN(c2ccc(C(=O)Nc3n[nH]c4ccc(C(=O)NCc5ccccc5)cc34)cc2)CC1` [Example 40, N-Benzyl-3-(4-(4-methylpiperazin-1-yl)benzamido)-1H-indazole-5-carboxamide], the 50% inhibitory concentration (IC50) came out at 0.00094 µM against TBK1 and 0.0089 µM against IKKε.

Take `O=C(NCc1ccc(C(F)(F)F)cc1)c1ccc2[nH]nc(NC(=O)c3ccc(N4CCOCC4)cc3)c2c1` [Example 65, 3-(4-Morpholinobenzamido)-N-(4-(trifluoromethyl)benzyl)-1H-indazole-5-carboxamide]: the figures for the half-inhibitory concentration (IC50) on TBK1 and against IKKε were 0.76 µM and 1.95 µM, respectively.

Regarding `CC(NC(=O)c1ccc2[nH]nc(NC(=O)c3ccc(N4CCOCC4)cc3)c2c1)c1cccnc1` (stereo not shown) [Example 52, 3-(4-Morpholinobenzamido)-N-(1-(pyridin-3-yl)ethyl)-1H-indazole-5-carboxamide], the IC50 at TBK1 is 0.014 µM; on IKKε it was over 10 µM.

With `CC(NC(=O)c1ccc2[nH]nc(NC(=O)c3ccc(N4CCN(C)CC4)cc3)c2c1)c1ccncc1` (stereo not shown) [Example 133, 3-(4-(4-Methylpiperazin-1-yl)benzamido)-N-(1-(pyridin-4-yl)ethyl)-1H-indazole-5-carboxamide], the figures for the IC50 at TBK1 and at IKKε were 0.028 µM and 0.053 µM, respectively.

Take `CCCC(NC(=O)c1ccc2[nH]nc(NC(=O)c3ccc(F)cc3)c2c1)c1cccs1` (stereo not shown) [Example 18, 3-(4-Fluorobenzamido)-N-(1-(thiophen-2-yl)butyl)-1H-indazole-5-carboxamide]: the concentration for half-maximal inhibition (IC50) on TBK1 was 0.21 µM; at IKKε, 1.23 µM.

As for `Cc1cc(N2CCN(C)CC2)ccc1C(=O)Nc1n[nH]c2ccc(C(=O)NCc3cccs3)cc12` [Example 74, 3-(2-Methyl-4-(4-methylpiperazin-1-yl)benzamido)-N-(thiophen-2-ylmethyl)-1H-indazole-5-carboxamide], the concentration for half-maximal inhibition (IC50) against TBK1 is 0.0044 µM; at IKKε, 0.079 µM.

Regarding `CN1CCN(c2ccc(C(=O)Nc3n[nH]c4ccc(C(=O)NCC5CCCCC5)cc34)cc2)CC1` [Example 87, N-(Cyclohexylmethyl)-3-(4-(4-methylpiperazin-1-yl)benzamido)-1H-indazole-5-carboxamide], the figures for the half-inhibitory concentration (IC50) on TBK1 and against IKKε were 0.018 µM and 0.072 µM, respectively.

With `O=C(Nc1n[nH]c2ccc(C(=O)NC3(c4cccnc4)CC3)cc12)c1ccc(F)cc1` [Example 217, 3-(4-Fluorobenzamido)-N-(1-(pyridin-3-yl)cyclopropyl)-1H-indazole-5-carboxamide], the figures for the half-inhibitory concentration (IC50) against TBK1 and on IKKε were 0.52 µM and 0.65 µM, respectively.

Take `O=C(NCc1c[nH]nn1)c1ccc2[nH]nc(NC(=O)c3ccc(N4CCOCC4)cc3)c2c1` [Example 119]: the figures for the IC50 against TBK1 and at IKKε were 0.46 µM and 1.24 µM, respectively.

As to `CC1CN(c2ccc(C(=O)Nc3n[nH]c4ccc(C(=O)NC(C)c5ccccc5)cc34)cc2)CC(C)N1` (stereo not shown) [Example 182, 3-(4-(3,5-Dimethylpiperazin-1-yl)benzamido)-N-(1-phenylethyl)-1H-indazole-5-carboxamide], the IC50 was found to be 0.003 µM against TBK1 and 0.0081 µM against IKKε.

Turning to `O=C(NCc1cccs1)c1ccc2[nH]nc(NC(=O)c3ccc(NCC4CCCO4)cc3)c2c1` (stereo not shown) [Example 157, 3-(4-(((Tetrahydrofuran-2-yl)methyl)amino)benzamido)-N-(thiophen-2-ylmethyl)-1H-indazole-5-carboxamide], the results for the IC50 on TBK1 and at IKKε were 0.008 µM and 0.05 µM, respectively.

As to `CCC(NC(=O)c1ccc2[nH]nc(NC(=O)c3ccc(N4CCN(C(C)=O)CC4)cc3)c2c1)c1ccsc1` (stereo not shown) [Example 209, 3-(4-(4-Acetylpiperazin-1-yl)benzamido)-N-(1-(thiophen-3-yl)propyl)-1H-indazole-5-carboxamide], the 50% inhibitory concentration (IC50) was determined as 0.0029 µM at TBK1 and 0.015 µM against IKKε.

With `Cc1noc(CNC(=O)c2ccc3[nH]nc(NC(=O)c4ccc(N5CCN(C)CC5)cc4)c3c2)n1` [Example 101, N-((3-Methyl-1,2,4-oxadiazol-5-yl)methyl)-3-(4-(4-methylpiperazin-1-yl)benzamido)-1H-indazole-5-carboxamide 2,2,2-trifluoroacetate], the IC50 at TBK1 came to 0.15 µM; against IKKε, 0.96 µM.
